According to ChEMBL document CHEMBL1275492, “In vitro activity of ceftobiprole against pathogens from two phase 3 clinical trials of complicated skin and skin structure infections” (2008):
≈ marks a conversion by molar mass, not a printed value.

What was measured:
Format in all cases: functional
Staphylococcus hominis = assay: Antibacterial activity against coagulase-negative Staphylococcus hominis obtained from complicated skin and skin structure infections by agar dilution method
Streptococcus pyogenes = assay: Antibacterial activity against Streptococcus pyogenes obtained from complicated skin and skin structure infections by agar dilution method
[1] = system: Staphylococcus intermedius; assay: Antibacterial activity against Staphylococcus intermedius obtained from complicated skin and skin structure infections by agar dilution method
[2] = system: Staphylococcus haemolyticus; assay: Antibacterial activity against coagulase-negative Staphylococcus haemolyticus obtained from complicated skin and skin structure infections by agar dilution method
Streptococcus agalactiae = assay: Antibacterial activity against Streptococcus agalactiae obtained from complicated skin and skin structure infections by agar dilution method
Enterococcus faecalis = assay: Antibacterial activity against Enterococcus faecalis obtained from complicated skin and skin structure infections by agar dilution method
[3] = system: Staphylococcus saprophyticus; assay: Antibacterial activity against coagulase-negative Staphylococcus saprophyticus obtained from complicated skin and skin structure infections by agar dilution method
Staphylococcus aureus [4] = assay: Antibacterial activity against methicillin susceptible Staphylococcus aureus obtained from complicated skin and skin structure infections by agar dilution method
Staphylococcus aureus [5] = assay: Antibacterial activity against Staphylococcus aureus obtained from complicated skin and skin structure infections by agar dilution method
Streptococcus mitis = assay: Antibacterial activity against Streptococcus mitis obtained from complicated skin and skin structure infections by agar dilution method
Gemella = assay: Antibacterial activity against Gemella spp. obtained from complicated skin and skin structure infections by agar dilution method
Micrococcus = assay: Antibacterial activity against Micrococcus spp. obtained from complicated skin and skin structure infections by agar dilution method
Gemella morbillorum = assay: Antibacterial activity against Gemella morbillorum obtained from complicated skin and skin structure infections […]
Bacillus = assay: Antibacterial activity against Bacillus spp. obtained from complicated skin and skin structure infections by agar dilution method
Staphylococcus capitis = assay: Antibacterial activity against coagulase-negative Staphylococcus capitis obtained from complicated skin and skin structure infections by agar dilution method
[6] = system: Staphylococcus lugdunensis; assay: Antibacterial activity against methicillin-resistant, oxacillin-susceptible, coagulase-negative, mecA-positive Staphylococcus lugdunensis obtained from complicated skin and skin structure infections by agar dilution method
Lactococcus lactis = assay: Antibacterial activity against Lactococcus lactis obtained from complicated skin and skin structure infections by agar dilution method
Staphylococcus = assay: Antibacterial activity against methicillin-susceptible, coagulase-negative Staphylococcus obtained from complicated skin and skin structure infections by agar dilution method
Staphylococcus cohnii = assay: Antibacterial activity against coagulase-negative Staphylococcus cohnii obtained from complicated skin and skin structure infections by agar dilution method
[7] = system: Streptococcus constellatus; assay: Antibacterial activity against Streptococcus constellatus obtained from complicated skin and skin structure infections by agar dilution method
Enterococcus faecium = assay: Antibacterial activity against Enterococcus faecium obtained from complicated skin and skin structure infections by agar dilution method
[8] = Antibacterial activity against Streptococcus sp. 'group G' obtained from complicated skin and skin structure infections by agar dilution method
Staphylococcus aureus [9] = assay: Antibacterial activity against methicillin resistant Staphylococcus aureus obtained from complicated skin and skin structure infections by agar dilution method
Aerococcus viridans = assay: Antibacterial activity against Aerococcus viridans obtained from complicated skin and skin structure infections by agar dilution method
[10] = system: Staphylococcus epidermidis; assay: Antibacterial activity against coagulase-negative Staphylococcus epidermidis obtained from complicated skin and skin structure infections by agar dilution method
Mammaliicoccus sciuri = assay: Antibacterial activity against coagulase-negative Staphylococcus sciuri obtained from complicated skin and skin structure infections by agar dilution method
Staphylococcus warneri = assay: Antibacterial activity against coagulase-negative Staphylococcus warneri obtained from complicated skin and skin structure infections by agar dilution method
[11] = system: Staphylococcus lugdunensis; assay: Antibacterial activity against coagulase-negative Staphylococcus lugdunensis obtained from complicated skin and skin structure infections by agar dilution method
[12] = Antibacterial activity against Streptococcus sp. 'group C' obtained from complicated skin and skin structure infections by agar dilution method

`CC(=O)NC[C@H]1CN(c2ccc(N3CCOCC3)c(F)c2)C(=O)O1` [LINEZOLID] gave an MIC50 (Staphylococcus hominis) of 1 µg/mL (≈ 2.96 µM), an MIC90 (Staphylococcus hominis) of 1 µg/mL (≈ 2.96 µM) and an MIC50 (Streptococcus pyogenes) of 1 µg/mL (≈ 2.96 µM). The MIC90 (Streptococcus pyogenes) was 1 µg/mL (≈ 2.96 µM), the MIC50 [1] was ≤ 0.06 µg/mL and the MIC90 [1] was 0.06 µg/mL (≈ 0.178 µM). For the same molecule, the MIC50 [2] was 1 µg/mL (≈ 2.96 µM), the MIC90 [2] was 1 µg/mL (≈ 2.96 µM) and the MIC50 (Streptococcus agalactiae) was 1 µg/mL (≈ 2.96 µM). The MIC90 (Streptococcus agalactiae) was 1 µg/mL (≈ 2.96 µM), the MIC50 (Enterococcus faecalis) was 1 µg/mL (≈ 2.96 µM) and the MIC90 (Enterococcus faecalis) was 2 µg/mL (≈ 5.93 µM). For the same molecule, the MIC50 [3] was 1 µg/mL (≈ 2.96 µM), the MIC90 [3] was 1 µg/mL (≈ 2.96 µM) and the MIC50 (Staphylococcus aureus [4]) was 2 µg/mL (≈ 5.93 µM). The MIC90 (Staphylococcus aureus [4]) was 2 µg/mL (≈ 5.93 µM), the MIC50 (Staphylococcus aureus [5]) was 2 µg/mL (≈ 5.93 µM) and the MIC90 (Staphylococcus aureus [5]) was 2 µg/mL (≈ 5.93 µM). The MIC50 (Streptococcus mitis) was ≤ 0.06 µg/mL, the MIC90 (Streptococcus mitis) was 0.06 µg/mL (≈ 0.178 µM) and the MIC50 (Gemella) was 1 µg/mL (≈ 2.96 µM). It also gave an MIC90 (Gemella) of 2 µg/mL (≈ 5.93 µM), an MIC50 (Micrococcus) of 1 µg/mL (≈ 2.96 µM) and an MIC90 (Micrococcus) of 2 µg/mL (≈ 5.93 µM). The MIC50 (Gemella morbillorum) was 1 µg/mL (≈ 2.96 µM), the MIC90 (Gemella morbillorum) was 2 µg/mL (≈ 5.93 µM) and the MIC50 (Bacillus) was 1 µg/mL (≈ 2.96 µM). It also gave an MIC90 (Bacillus) of 2 µg/mL (≈ 5.93 µM), an MIC50 (Staphylococcus capitis) of 1 µg/mL (≈ 2.96 µM) and an MIC90 (Staphylococcus capitis) of 1 µg/mL (≈ 2.96 µM). For the same molecule, the MIC50 [6] was 1 µg/mL (≈ 2.96 µM), the MIC90 [6] was 1 µg/mL (≈ 2.96 µM) and the MIC50 (Lactococcus lactis) was 1 µg/mL (≈ 2.96 µM). The MIC90 (Lactococcus lactis) was 2 µg/mL (≈ 5.93 µM), the MIC50 (Staphylococcus) was 1 µg/mL (≈ 2.96 µM) and the MIC90 (Staphylococcus) was 1 µg/mL (≈ 2.96 µM). The MIC50 (Staphylococcus cohnii) was 1 µg/mL (≈ 2.96 µM), the MIC90 (Staphylococcus cohnii) was 1 µg/mL (≈ 2.96 µM) and the MIC50 [7] was 1 µg/mL (≈ 2.96 µM). It also gave an MIC90 [7] of 1 µg/mL (≈ 2.96 µM), an MIC (Enterococcus faecium) of 2 µg/mL (≈ 5.93 µM) and an MIC50 (Enterococcus faecium) of 2 µg/mL (≈ 5.93 µM). For the same molecule, the MIC [8] was 1 µg/mL (≈ 2.96 µM), the MIC50 [8] was 1 µg/mL (≈ 2.96 µM) and the MIC90 [8] was 1 µg/mL (≈ 2.96 µM). It also gave an MIC50 (Staphylococcus aureus [9]) of 2 µg/mL (≈ 5.93 µM), an MIC90 (Staphylococcus aureus [9]) of 2 µg/mL (≈ 5.93 µM) and an MIC50 (Aerococcus viridans) of 1 µg/mL (≈ 2.96 µM). It also gave an MIC90 (Aerococcus viridans) of 2 µg/mL (≈ 5.93 µM), an MIC50 [10] of 1 µg/mL (≈ 2.96 µM) and an MIC90 [10] of 1 µg/mL (≈ 2.96 µM). The MIC50 (Mammaliicoccus sciuri) was 1 µg/mL (≈ 2.96 µM), the MIC90 (Mammaliicoccus sciuri) was 1 µg/mL (≈ 2.96 µM) and the MIC50 (Staphylococcus warneri) was 1 µg/mL (≈ 2.96 µM). For the same molecule, the MIC90 (Staphylococcus warneri) was 1 µg/mL (≈ 2.96 µM), the MIC50 [11] was 1 µg/mL (≈ 2.96 µM) and the MIC90 [11] was 1 µg/mL (≈ 2.96 µM). It also gave an MIC50 [12] of 1 µg/mL (≈ 2.96 µM) and an MIC90 [12] of 2 µg/mL (≈ 5.93 µM).
For `CN[C@H](CC(C)C)C(=O)N[C@H]1C(=O)N[C@@H](CC(N)=O)C(=O)N[C@H]2C(=O)N[C@H]3C(=O)N[C@H](C(=O)N[C@H](C(=O)O)c4cc(O)cc(O)c4-c4cc3ccc4O)[C@H](O)c3ccc(c(Cl)c3)Oc3cc2cc(c3O[C@@H]2O[C@H](CO)[C@@H](O)[C@H](O)[C@H]2O[C@H]2C[C@](C)(N)[C@H](O)[C@H](C)O2)Oc2ccc(cc2Cl)[C@H]1O` [VANCOMYCIN], the MIC50 (Staphylococcus hominis) was 1 µg/mL (≈ 0.69 µM), the MIC90 (Staphylococcus hominis) was 2 µg/mL (≈ 1.38 µM) and the MIC50 (Streptococcus pyogenes) was 0.5 µg/mL (≈ 0.345 µM). For the same molecule, the MIC90 (Streptococcus pyogenes) was 0.5 µg/mL (≈ 0.345 µM), the MIC50 [1] was 1 µg/mL (≈ 0.69 µM) and the MIC90 [1] was 1 µg/mL (≈ 0.69 µM). It also gave an MIC50 [2] of 1 µg/mL (≈ 0.69 µM), an MIC90 [2] of 2 µg/mL (≈ 1.38 µM) and an MIC50 (Streptococcus agalactiae) of 0.5 µg/mL (≈ 0.345 µM). For the same molecule, the MIC90 (Streptococcus agalactiae) was 0.5 µg/mL (≈ 0.345 µM), the MIC (Enterococcus faecalis) was 1 µg/mL (≈ 0.69 µM) and the MIC50 (Enterococcus faecalis) was 1 µg/mL (≈ 0.69 µM). It also gave an MIC90 (Enterococcus faecalis) of 2 µg/mL (≈ 1.38 µM), an MIC50 [3] of 1 µg/mL (≈ 0.69 µM) and an MIC90 [3] of 2 µg/mL (≈ 1.38 µM). It also gave an MIC50 (Staphylococcus aureus [4]) of 1 µg/mL (≈ 0.69 µM), an MIC90 (Staphylococcus aureus [4]) of 1 µg/mL (≈ 0.69 µM) and an MIC50 (Staphylococcus aureus [5]) of 1 µg/mL (≈ 0.69 µM). It also gave an MIC90 (Staphylococcus aureus [5]) of 1 µg/mL (≈ 0.69 µM), an MIC50 (Streptococcus mitis) of 1 µg/mL (≈ 0.69 µM) and an MIC90 (Streptococcus mitis) of 1 µg/mL (≈ 0.69 µM). The MIC50 (Gemella) was 1 µg/mL (≈ 0.69 µM), the MIC90 (Gemella) was 1 µg/mL (≈ 0.69 µM) and the MIC50 (Micrococcus) was 1 µg/mL (≈ 0.69 µM). The MIC90 (Micrococcus) was 1 µg/mL (≈ 0.69 µM), the MIC50 (Gemella morbillorum) was 1 µg/mL (≈ 0.69 µM) and the MIC90 (Gemella morbillorum) was 1 µg/mL (≈ 0.69 µM). For the same molecule, the MIC50 (Bacillus) was 1 µg/mL (≈ 0.69 µM), the MIC90 (Bacillus) was 1 µg/mL (≈ 0.69 µM) and the MIC50 (Staphylococcus capitis) was 1 µg/mL (≈ 0.69 µM). It also gave an MIC90 (Staphylococcus capitis) of 2 µg/mL (≈ 1.38 µM), an MIC50 [6] of 1 µg/mL (≈ 0.69 µM) and an MIC90 [6] of 2 µg/mL (≈ 1.38 µM). For the same molecule, the MIC50 (Lactococcus lactis) was 1 µg/mL (≈ 0.69 µM), the MIC90 (Lactococcus lactis) was 1 µg/mL (≈ 0.69 µM) and the MIC50 (Staphylococcus) was 1 µg/mL (≈ 0.69 µM). The MIC90 (Staphylococcus) was 2 µg/mL (≈ 1.38 µM), the MIC50 (Staphylococcus cohnii) was 1 µg/mL (≈ 0.69 µM) and the MIC90 (Staphylococcus cohnii) was 2 µg/mL (≈ 1.38 µM). It also gave an MIC50 [7] of 0.5 µg/mL (≈ 0.345 µM), an MIC90 [7] of 0.5 µg/mL (≈ 0.345 µM) and an MIC50 (Enterococcus faecium) of 1 µg/mL (≈ 0.69 µM). It also gave an MIC [8] of 0.25 µg/mL (≈ 0.173 µM), an MIC50 [8] of 0.25 µg/mL (≈ 0.173 µM) and an MIC90 [8] of 0.5 µg/mL (≈ 0.345 µM). It also gave an MIC50 (Staphylococcus aureus [9]) of 1 µg/mL (≈ 0.69 µM), an MIC90 (Staphylococcus aureus [9]) of 1 µg/mL (≈ 0.69 µM) and an MIC50 (Aerococcus viridans) of 1 µg/mL (≈ 0.69 µM). For the same molecule, the MIC90 (Aerococcus viridans) was 1 µg/mL (≈ 0.69 µM), the MIC50 [10] was 1 µg/mL (≈ 0.69 µM) and the MIC90 [10] was 2 µg/mL (≈ 1.38 µM). It also gave an MIC50 (Mammaliicoccus sciuri) of 1 µg/mL (≈ 0.69 µM), an MIC90 (Mammaliicoccus sciuri) of 2 µg/mL (≈ 1.38 µM) and an MIC50 (Staphylococcus warneri) of 1 µg/mL (≈ 0.69 µM). The MIC90 (Staphylococcus warneri) was 2 µg/mL (≈ 1.38 µM), the MIC50 [11] was 1 µg/mL (≈ 0.69 µM) and the MIC90 [11] was 2 µg/mL (≈ 1.38 µM). It also gave an MIC50 [12] of 0.5 µg/mL (≈ 0.345 µM) and an MIC90 [12] of 1 µg/mL (≈ 0.69 µM).
